Read-outs that look alike come from different tables or passages of the source.

In one assay the test system is Rh41 cells. Description: 3H-thymidine incorporation cell proliferation assay in parental Rh41 cells. Format: cell-based, human. The settings on record: Homo sapiens. The source says:
(§1) Human rhabdomyosarcoma cell line Rh41 was provided by Dr. Lee Helman and grown in RPMI medium plus GLUTAMAX® supplemented with 10% fetal bovine serum (FBS), 10 mmol/L HEPES, penicillin, and streptomycin.
In general terms: Uptake of a labelled nucleoside into DNA is a usual measure of proliferation.

The subject of assay [1] is Rh41-807R cells. In words: 3H-thymidine incorporation cell proliferation assay in BMS-754807-resistant Rh41-807R cells. Format: cell-based, human. The settings on record: for IC50: Homo sapiens.
Text: as §1

For the next assay, the system named is Rh41-MAB391R cells. In words: 3H-thymidine incorporation cell proliferation assay in MAB391-resistant Rh41-MAB391R cells. Format: cell-based, human. The source says:
Human rhabdomyosarcoma cell line Rh41 was provided by Dr. Lee Helman and grown in RPMI medium plus GLUTAMAX® supplemented with 10% fetal bovine serum (FBS), 10 mmol/L HEPES, penicillin, and streptomycin. To develop acquired resistant cells to either BMS-754807, or mAB391 (R&D Systems, Inc., Minneapolis, Minn.), the sensitive Rh41 cells were exposed to the corresponding drug at the IC50 concentration and then at gradually increasing concentrations every other culture passage. The IC50 value to the compound was measured periodically during this treatment time until the resistance level reached a plateau.
(§2) Human rhabdomyosarcoma cell line Rh41 was chosen in this study to develop acquired resistance because it expresses IGF-1R (Huang et al., Cancer Res., 69(1):161-170 (Jan. 1, 2009)), the target of BMS-754807 and MAB391; and is sensitive to both drugs (Carboni et al., Proceedings of the 100th Annual Meeting of the American Association for Cancer Research, 2009 Apr. 18-22; Denver, Colo., Abstract No. 1742). The acquired-resistant Rh41-807R and Rh41-MAB391R cell lines were developed using a stepwise exposure to increasing concentrations of either IGF-1R/IR inhibitor BMS-754807 or IGF-1R antibody MAB391 for extended periods of time until a resistance plateau was reach. […];

The next assay relates to Rh1 cells. In words: 3H-thymidine incorporation cell proliferation assay in Rh1 cells. Format: cell-based. The settings on record: Homo sapiens, RH-1.
A further assay deals with Rh1-807R cells. Description: 3H-thymidine incorporation cell proliferation assay in Rh1-807R cells. Format: cell-based.
A further assay relates to SW403 cells. Description: 3H-thymidine incorporation cell proliferation assay in SW403 cells. Format: cell-based. Particulars: Homo sapiens, SW-403.
A further assay relates to SW403-807R cells. Description: 3H-thymidine incorporation cell proliferation assay in SW403-807R cells. Format: cell-based.
The test system of another assay is Geo cells. In words: 3H-thymidine incorporation cell proliferation assay in Geo cells. Format: cell-based.
A further assay has as its system GEO-807R cells. In words: 3H-thymidine incorporation cell proliferation assay in GEO-807R cells. Format: cell-based.
The next assay deals with Rh41-807Rout cells. Description: Cell proliferation assay in Rh41-807Rout cells (out of drug selection for 3 months). Format: cell-based, human. The settings on record: out of drug selection for 3 months of passages.
Text: as §2

Another assay relates to PDGFRα RNA in Rh41 cells. Description: Induction of PDGFRα expression in sensitive parental Rh41 cells (qRT-PCR). Format: cell-based, human. As to the method: FIGS. 3A-F show expression pattern comparisons of selected genes/proteins that uniquely changed expression only in 807R or in MAB391R. […] Insert: PDGFR-α protein expression pattern as detected by western blot. […] Cells starved for 24 hr, then stimulated with or without 50 ng/ml PDGF ligand fro 5 min. Cells were lyzed and 30 ug of total protein was used for western blot analyses. […] Insert: AXL protein expression as detected by western blot. […] Cells treated with 10 nM and 50 nM of BMS-754807 for 1, 2, 4, 8 and 24 hrs. PDGFRα RNA levels were measured by qRT-PCR and compared to the untreated time 0 control.
Comparing genes expression profiles, the inventors found there were some key signaling pathways that were differentially expressed in Rh41-807R and Rh41-MAB391R cells. An interesting example was PDGFR-α, which had >89 fold increase in RNA expression in Rh41-807R cells but not in Rh41-MAB391R compared to the parental; and the induction of PDGFR-α was persistent even in cells out of BMS-754807 selection for 3 months (FIG. 3A). The expression pattern was also confirmed at protein levels (FIG. 3A); PDGFR-α was also constitutively activated in Rh41-807R cells (FIG. 3B). […] Other genes such as c-KIT, FGFR2 and EPHA3 had similar expression pattern as PDGFR-α (FIG. 3C). Several Eph receptor family members such as EPHA3, EPHA4 and EPHB2 as well as ligand EFNA3 were overexpressed in 807R.
In general terms: Quantitative PCR measures a nucleic acid by following its amplification.

Another assay relates to Rh41 xenograft tumors. Description: In vivo xenograft tumor growth inhibition, Rh41. Particulars: Rh41 xenograft tumors in nude mice.
Assay [2] has as its system Rh41-807R xenograft tumors. In words: In vivo xenograft tumor growth inhibition, Rh41-807R. Particulars: Rh41-807R xenograft tumors in nude mice.
Experimental: (§3) Tumor volume was measured to assess tumor growth inhibition.
A further assay deals with MCF-7-807R cells. In words: 3H-thymidine incorporation cell proliferation assay in MCF-7-807R cells.
Assay [3] has as its system Rh41 cells with PDGFR-α knockdown. In words: Proliferation assay in Rh41 cells transfected with PDGFR-α specific siRNA. The settings on record: Rh41 sensitive parental cells.
Experimental: (§4) RISC-free siRNA was transfected as the negative control (Dharmacon). Following the addition of the drugs, cells were incubated at 37° C. for 72 hours before cell growth was measured by incorporation of ^3H-thymidine as described for in vitro cellular proliferation assays.
For assay [4], the system named is Rh41-807R cells with PDGFR-α knockdown. In words: Proliferation assay in Rh41-807R cells transfected with PDGFR-α specific siRNA. The settings on record: Rh41-807R cells treated with PDGFR-α siRNA.
Experimental: as §4
Assay [5] has as its system Rh41-807R cells. Particulars: 1:1 ratio, Combination Index less than 1 indicates synergy. The source says:
A dilution of ratios drug combination method was used in cellular proliferation assays to test the IC50 values of single agent (A or B) as well as in combination (a or b). […] Combination Index=(a/A+b/B).

Setting [6] is: read-out: IGF-1R inhibitor Compound (IC50).

Experimental for GEO-807R cells: (§5) Cells were plated at an optimized density in 96-well plates, incubated overnight at 37° C., and then exposed to a serial dilution of the drugs. After 72 hours incubation, cells were pulsed with 4 μCi/ml [^3H]-thymidine (Amersham Pharmacia Biotech, UK) for 3 hours, trypsinized, harvested onto […] ®-96 GF/B plates (PerkinElmer, Boston, Mass.); scintillation was measured on a TOPCOUNTO NXT (Packard, Conn.). […] The mean IC50 and standard deviation from multiple tests for each cell line were calculated.
Experimental for Geo cells: as §5
Experimental for MCF-7-807R cells: as §5
Experimental for Rh1 cells: as §5
Experimental for Rh1-807R cells: as §5
Experimental for Rh41 xenograft tumors: as §3
Experimental for SW403 cells: as §5
Experimental for SW403-807R cells: as §5

For the compound `C[C@@]1(C(=O)Nc2ccc(F)nc2)CCCN1c1nc(Nc2cc(C3CC3)[nH]n2)c2cccn2n1` [BMS-754807, (2S)-1-(4-((5-cyclopropyl-1H-pyrazol-3-yl)amino)pyrrolo[2,1-f][1,2,4]triazin-2-yl)-N-(6-fluoro-3-pyridinyl)-2-methyl-2-pyrrolidinecarboxamide], the IC50 with Rh41 cells (Rh41, read-out: IC50 (nM) Rh41) is 5 nM; in the assay on Rh41 cells (Rh41, read-out: IGF-1R inhibitor Compound (IC50)), 5 nM; in the assay on Rh41 cells (Rh41, read-out: Parental IC50 (nM)), 5 nM; in the assay with Rh41-807R cells [1] (Rh41), 811 nM; in the assay on Rh41-807R cells [1] (read-out: IC50 (nM) Rh41-807R), 811 nM; in the assay with Rh41-807R cells [1] (setting [6]), 811 nM. Moreover, the IC50 in the assay with Rh41-MAB391R cells (Homo sapiens, read-out: IC50 (nM) Rh41-MAB391R) came out at 27 nM; in the assay on Rh1 cells (Rh1 cells, Table 9, read-out: IGF-1R inhibitor Compound (IC50)) it was 27 nM; with Rh1 cells (Rh1 parental cells, Table 8, read-out: Parental IC50), 27 nM; with Rh1-807R cells (Homo sapiens, RH-1, BMS-754807-resistant Rh1 cells, maintenance conc. 120, Table 8, read-out: IC50), 1800 nM; with Rh1-807R cells (Rh1-807R cells, Table 9, read-out: IGF-1R inhibitor Compound (IC50)), 1800 ± 1390 nM; with SW403 cells (SW403 cells, Table 9, read-out: IGF-1R inhibitor Compound (IC50)) it was 220 nM. Also, the IC50 in the assay with SW403 cells (SW403 parental cells, Table 8, read-out: Parental IC50) worked out at 220 nM; in the assay on SW403-807R cells (Homo sapiens, SW-403, BMS-754807-resistant SW403 cells, maintenance conc. 500, Table 8, read-out: IC50), 979 nM; in the assay with SW403-807R cells (SW403-807R cells, Table 9, read-out: IGF-1R inhibitor Compound (IC50)), 979 ± 528 nM; with Geo cells (Geo cells, Table 9, read-out: IGF-1R inhibitor Compound (IC50)), 350 nM; in the assay with Geo cells (Geo parental cells, Table 8, read-out: Parental IC50) it was 350 nM; in the assay on GEO-807R cells (BMS-754807-resistant Geo cells, maintenance conc. 2000, Table 8, read-out: IC50) it was 1230 nM. The IC50 in the assay with GEO-807R cells (GEO-807R cells, Table 9, read-out: IGF-1R inhibitor Compound (IC50)) was 1230 ± 251 nM; in the assay on MCF-7-807R cells (Homo sapiens, MCF7), 735 nM; with MCF-7-807R cells (setting [6]), 972 ± 400 nM. Moreover, the Relative resistance in the assay on Rh41-807R cells [1] (fold change in IC50, resistant vs parental Rh41 cells) amounted to 162X; with Rh1-807R cells (fold change in IC50, resistant vs parental Rh1 cells) it was 66.5X; with SW403-807R cells (fold change in IC50, resistant vs parental SW403 cells), 4.5X; with GEO-807R cells (fold change in IC50, resistant vs parental Geo cells), 3.5X; with MCF-7-807R cells (fold change in IC50, resistant vs parental MCF-7 cells), 46X. In the assay with Rh41-MAB391R cells (growth inhibited to a comparable level as the parental cells), the “activity in the Rh41-MAB391R model” value is recorded as “relatively active”. Moreover, the “resistance of Rh41-807Rout” value in the assay with Rh41-807Rout cells is recorded as “significant level of resistance”. Moreover, in the assay with PDGFRα RNA in Rh41 cells (Rh41 cells), the “time at which induction of PDGFRα RNA was seen after treatment” value amounted to 4 h. Besides, the “induction of PDGFR-α expression” value with PDGFRα RNA in Rh41 cells (Rh41 sensitive parental cells, 10 nM and 50 nM) was “dose-dependent”. The “tumor growth inhibition (TGI)” value in the assay with Rh41 xenograft tumors turned out to be 73%; in assay [2], 35%. In addition, in assay [3], the “sensitivity between untransfected, control siRNA and PDGFR-α-specific siRNA transfected cells” value is recorded as “no significant differences in the sensitivity”. In addition, the “response to growth inhibition after PDGFR-α siRNA” value in [4] is reported as “sensitive to growth inhibition”.

With `Cc1ccc(NC(=O)c2ccc(CN3CCN(C)CC3)cc2)cc1Nc1nccc(-c2cccnc2)n1` [imatinib], the “activity in growth inhibition in combination with BMS-754807” value with Rh41-807R cells [5] is “synergistic activity”.

In general, IC50 refers to the concentration at which inhibition is half-maximal.

(Values after patent US20120220594A1, “METHODS FOR TREATING CANCER IN PATIENTS HAVING IGF-1R INHIBITOR RESISTANCE” (Bristol-Meyers Squibb Company, priority 2009, published 2012).)
